Laboratory results as given in a melting point compilation (Tetko et al.; mined from patent text by program, amines drawn as free bases though some values may be those of a salt).

Row | SMILES | melting point
1 | COC(=O)C(CSC(c1ccccc1)c1ccccc1)NC(=O)C(=O)NCCSC(c1ccccc1)c1ccccc1 (centres undefined) | 131 °C
2 | CC(=O)Nc1c(C(=O)c2cccc(C(=O)O)c2)[nH]c2cc(Cl)ccc12 | > 290 °C
3 | Cn1cc(C=C2SC(=S)N(CC(=O)O)C2=O)c2ccccc21 | 282 to 288 °C
4 | Cc1csc(NC(=O)c2cn(-c3ccccc3)c3ccccc3c2=O)n1 | 252 to 254 °C
5 | COc1cc2c(cc1OCc1ccccc1)CCN(Cc1cc(OC)c(OC)c(OC)c1)C2=O | 136 to 137 °C
6 | O=C(NCCc1cccs1)C12CC3CC(CC(O)(C3)C1)C2 | 118 to 119 °C
7 | O=[N+]([O-])c1cc(Cl)cnc1Oc1ccc(O)cc1 | 125 to 126 °C
8 | N#Cc1cc2c(c3ccc(=O)[nH]c13)OC(CN=[N+]=[N-])C2 (centres undefined) | 213 to 215 °C
9 | Cc1c(OCC2CO2)noc1-c1ccccc1 (centres undefined) | 87 to 88 °C
10 | CCC(=O)NCC1CC1c1cccc2nc(C)cn12 (centres undefined) | 88 to 90 °C
11 | CCOC(=O)C1=Cc2cc(Cl)c(C)c(Cl)c2OC1C(F)(F)F (centres undefined) | 117 to 120 °C
12 | Clc1nc2cc3c(cc2s1)OCO3 | 131 to 132 °C
13 | Cc1cc(CCCCCCc2c(Cl)cc(C3=NCCO3)cc2Cl)on1 | 65 to 66 °C
14 | CC(=O)N[C@@H]1CC[C@@H](O)c2ccccc21 (relative stereo) | 120 to 127 °C
15 | COc1cc(OC)c(C(=O)C=Cc2ccc(SC)cc2)c(OP(=O)(O)O)c1 | 63 to 66 °C
16 | COc1ccc2cccc(C(=O)C(N)=O)c2c1 | 112 °C
17 | O=S1CCN(c2ccc(-n3cc(CN=C=S)nn3)cc2F)CC1 | 182 to 184 °C
18 | ICCCC1(c2ccccc2)OCCO1 | 71 to 73 °C
19 | CN1Cc2cncn2-c2cccnc2C1=O | 199 to 201 °C
20 | CC(C)(C)Sc1c(C#N)nn(-c2c(Cl)cc(C(F)(F)F)cc2Cl)c1N | 196 to 198 °C
21 | N#Cc1ccc(NCC(F)(F)F)cc1C(F)(F)F | 132 to 134 °C

Row | SMILES | melting point
22 | CCCc1c(OCC(O)CSCCN(C)C)ccc(C(C)=O)c1O (centres undefined) | 54 to 55 °C
23 | C=CC(C)=CC=C(C(C)=CC(=O)OC1C(CO)OC(OC)C(O)C1O)c1c(C)cc(OC)c(C)c1C (centres undefined) | 159 to 160 °C
24 | CC(=O)OCCc1ccc(NC(=O)CCCCl)cc1 | 83 °C
25 | CC(N)(C(N)=O)C(F)(F)F (centres undefined) | 84 to 85 °C
26 | CCSc1ccc(C2=NC[C@@H](OC(=O)Nc3ccccc3)[C@H](c3ccccc3)O2)cc1 (racemic) | 70 °C
27 | COc1ncc(S(C)(=O)=O)cc1CCC(=O)c1ccc(Cl)c(Cl)c1 | 145 to 146 °C
28 | CCNc1cccc(NC(=O)COC)c1C#N | 118 to 119 °C
29 | O=C(NO)[C@@H](CC(=O)N1CCOCC1)NS(=O)(=O)c1ccc(Oc2ccccc2)cc1 | 161 to 163 °C
30 | COc1ccc(CNc2nc(C#N)ncc2C(=O)c2cc(OC)c(OC)c(OC)c2)cc1Cl | 140 to 143 °C
31 | COCc1c(C(=O)OC(C)C)ncc2[nH]c3cccc(Oc4ccc([N+](=O)[O-])cc4)c3c12 | 217 to 219 °C
32 | COC(=O)/C=C(C)/C=C/C(F)=C(C)/C=C/C1(C)C=C(C)OC1C (centres undefined) | 122 to 126 °C
33 | Cn1c(CNCC(C)(C)C)cc2cc(NC(=O)c3ccc(C#CC4(O)CCC4)cc3)ccc21 | 160 to 161 °C
34 | CC(=O)N[C@@H]1CCCC[C@H]1OCC(=O)O (relative stereo) | 141 to 143 °C
35 | COC(=O)C1=C(N)CCC(C#N)(c2ccc(OC)c(OCC3CC3)c2)C1 (centres undefined) | 164 to 165 °C
36 | Cn1c(C(F)(F)F)ccc(-c2c(F)cc(Cl)c3occc23)c1=O | 178 to 179 °C
37 | Cc1cccc(NC(=O)OC(C)(C)C)c1CNc1cccn2c(C=O)c(C)nc12 | 210 to 212 °C
38 | O=Cc1cc([N+](=O)[O-])ccc1Oc1ccc(F)cc1 | 125 to 126 °C
39 | O=C(NC(C(=O)NC(CO)COCc1ccccc1)C(Cc1ccccc1)C(=O)O)OCc1ccccc1 (centres undefined) | 100 to 103 °C
40 | CCCCc1nc(C(C)(C)O)c(C(=O)O)n1Cc1ccc(-c2ccccc2-c2nnn[nH]2)cc1 | 138 to 141 °C
41 | CCOC(=NC(=O)c1ccc(Cl)cc1Cl)N1Cc2ccccc2-c2ccccc2C1 | 158 to 159 °C
42 | COc1cccc(C=CCC(=O)O)c1OC | 84 to 86 °C

Row | SMILES | melting point
43 | COC(=O)c1ccc(C(F)(F)F)nc1S(N)(=O)=O | 187 to 188 °C
44 | CC12CC(F)C3(Br)C(CCC4=CC(=O)CCC43C)C1CCC2=O (centres undefined) | 165 to 166 °C
45 | COc1cc2c(cc1OC)C(C=Cc1ccc(N)cc1)=NNC(C)C2 (centres undefined) | 152 to 154 °C
46 | O=C(O)COc1cc(F)c(Br)cc1C(=O)NCc1cccc([N+](=O)[O-])c1 | 169 to 172 °C
47 | CN(C)Cc1nc(C(=O)O)nn1-c1ccc(Cl)cc1C(=O)c1ccccc1Cl | 110 to 113 °C
48 | Cc1ccc(NC(N)=S)nc1 | 178 to 181 °C
49 | CC#CCOc1ccc(S(=O)(=O)C(C(=O)NO)c2ccc(Cl)cc2)cc1 (centres undefined) | 140 °C
50 | COc1cc(NC(=O)c2cc(C(C)C)c(C(C)C)o2)ccc1C(=O)O | 136 to 137 °C
51 | COc1cccc(-n2ccc(=O)c(-c3ccnn3-c3ccccc3)n2)c1 | 110 to 111 °C
52 | CC(C)COC(=O)N=C(N=C1NC(=O)C(=O)N1c1ccc(Cl)c(Cl)c1)NC(C)C | 260 °C
53 | CCc1[nH]nc2c1C(=O)c1c(NC(=O)NN3CCN(C)CC3)cccc1-2 | 244 to 246 °C
54 | COc1cc(C2=C(c3cn(CCCNC(=O)C(N)CO)c4ccccc34)C(=O)NC2=O)cc(OC)c1OC (centres undefined) | 112 to 114 °C
55 | Nc1ccccc1OCCCCCN1CCC(OC(c2ccccc2)c2ccccc2)CC1 | 80 to 81 °C
56 | Cc1cc(-c2oncc2CCl)ccc1Cl | 84 to 85 °C
57 | CCOP(=O)(OCC)C(O)c1ccc([N+](=O)[O-])cc1 (centres undefined) | 94 to 95 °C
58 | Cc1c(OCc2ccc(F)cc2F)ccn(Cc2cccc(F)c2)c1=O | 127 to 129 °C
59 | CC(C)(C)OC(=O)NC12CCC1CN(c1c(F)cc3c(=O)c(C(=O)O)cn(C4CC4)c3c1F)C2 (centres undefined) | 211 to 215 °C
60 | CCOc1nc(C(F)(F)F)cc(=O)n1-c1cc(OC(C)C)c(Br)cc1F | 106 to 108 °C
61 | CN1Cc2c(-c3nc(CN)no3)ncn2-c2ccccc2C1=O | 183 to 185 °C

The next lines start with the values.

Row | melting point | SMILES
62 | 109 to 113 °C | CCCCC1=C(C=Cc2ccc(N(CCCC)CCCC)cc2OC)CC(C)(C)CC1=CC=CC1=C(C#N)C(=C(C#N)C#N)OC1(c1ccccc1)C(F)(F)F (centres undefined)
63 | 220 to 221 °C | COc1cc2nc(N3CCN(c4nccs4)CC3)nc(N)c2cc1OC
64 | 101 to 102 °C | CCc1cc([N+](=O)[O-])c(N)c([N+](=O)[O-])c1C
65 | 97 to 99 °C | OC(CCN1CCN(c2ccc(F)cc2)CC1)COc1ccccc1 (centres undefined)
66 | 147 to 148 °C | OCc1cnn(-c2ccccc2)c1-c1ccccc1
67 | 105 to 107 °C | CSc1nc(Cl)c2ccsc2n1
68 | 102 to 104 °C | CC(C)COC(=O)CCC12CCC(=O)N1C(=O)CC2
69 | 234 to 236 °C | CCCNC(=O)Nc1c(C(=O)c2ccccc2)[nH]c2cc(Cl)ccc12
70 | 80 to 82 °C | Cc1cccc(-c2n[nH]cc2-c2ccc(F)c(-c3ccc(S(=O)(=O)C(F)F)cc3)c2)n1
71 | 146 to 147 °C | Cc1cc(C(=O)Nc2ccc(OCC(C)(C)C)c(C#N)c2)nn1-c1ccc(F)cc1
72 | 204 to 206 °C | CC(C)Oc1ccc(-c2nn(C(C)c3oc4ccccc4c(=O)c3-c3cccc(F)c3)c3ncnc(N)c23)cc1F (centres undefined)
73 | 176 °C | N#Cc1cnn2c(C(F)(F)F)cc(-c3ccc(C(F)(F)F)cc3)nc12
74 | 187 to 189 °C | CCOc1ccc(OCC(=O)O)c2c1C(=O)N(CSc1nnnn1-c1ccccc1)S2(=O)=O
75 | 129 °C | COc1cc(C(=O)CCCN2CCC(OC(=O)c3cc(Cl)c(N)c4cc(C)oc34)CC2)cc(OC)c1OC
76 | 49 to 50 °C | CCCOc1ccc(-c2scc(-c3ccccc3Cl)c2CC(=O)NC(=N)NCCCO)cc1
77 | 66 to 68 °C | C=CC(=O)N1Cc2ccccc2SC(Cl)C1 (centres undefined)
78 | 144 to 145 °C | OCC1OC(n2c(Cl)c(-c3ccsc3)c3cc(Cl)c(Cl)cc32)CC1O (centres undefined)
79 | 142 to 144 °C | CCOC(=O)C(C)(C)c1ccc(C(O)CCCN2CCC(=C3c4ccccc4CCc4ccccc43)CC2)cc1 (centres undefined)
80 | 92 to 94 °C | Cc1cc(N)cnc1Oc1ccc(Cl)c(C(F)(F)F)c1

Row | melting point | SMILES
81 | 141 to 142 °C | Cc1nn(C)c2c1Nc1ncccc1N(C)C2=O
82 | 221 to 225 °C | NC(=O)CC(CC(N)=O)c1c(Cl)cccc1Cl
83 | 69 °C | COC=C(C(=O)OC)c1ccccc1Oc1ncnc(F)c1F
84 | 137 to 138 °C | CCCCN1CC(O)N(c2cc(OC)c(Cl)cc2F)C1=S (centres undefined)
85 | 275 to 278 °C | CN1C(=O)c2cccnc2Nc2cc([N+](=O)[O-])ccc21
86 | 123 to 125 °C | Cc1ccccc1NC(=O)CN1CCN(c2ncccc2C#N)CC1
87 | 149 to 159 °C | CCOC(=O)c1c(NCc2ccccc2)n[nH]c1C
88 | 53 °C | C[C@@H](OC(=O)N1C(C)(C)COC1(C)C)C(C)(C)O
89 | > 250 °C | COc1cc2ncc(C#N)c(Nc3ccc(C)cc3O)c2cc1OC
90 | 260 to 264 °C | O=C(O)Cn1c(=O)c(=O)[nH]c2c([N+](=O)[O-])c(Br)c(Br)cc21
91 | 261 to 263 °C | COc1cc(OC)c2c(=O)c3oc4ccccc4c3oc2c1
92 | 146 to 147 °C | COC(=O)C1(NC(=O)Cc2cc(-c3ccc(Cl)cc3)ccc2Cl)CCC(F)(F)CC1
93 | 189 to 191 °C | O=[N+]([O-])c1ccc2c(c1)Sc1cc(OCCF)ccc1N2
94 | 99 °C | CC[C@@]1(c2cc(F)cc(OCc3ccc4c(ccc(=O)n4C)c3)c2)CCO[C@H](C)C1 (racemic)
95 | 87 to 89 °C | CCCCCCc1cc(-c2ccccc2)c(OCC(=O)O)c(-c2ccccc2)c1
96 | 294 to 295 °C | COc1ccc(-c2c(Cl)c(CN3C(=O)CCC3=O)nc3sc4c(F)c(O)ccc4c23)cc1
97 | 135 to 137 °C | CCCNC(=O)C1(C/C=C\CSc2nc3ccc(OCC)cc3s2)c2ccccc2-c2ccccc21
98 | 153 to 154 °C | Clc1nc(Cl)nc(N2CC3CCC(CC3)C2)n1
99 | 176 to 178 °C | CN1OC(COc2ccccc2)CC1(Cn1ccnc1)c1ccc2ccccc2c1 (centres undefined)
